{"source": "ChEMBL document CHEMBL1156671", "about": "“QSAR studies on benzoylaminobenzoic acid derivatives as inhibitors of beta-ketoacyl-acyl carrier protein synthase III” (Eur J Med Chem, 2008)", "key": {"[1]": {"target": "T1, Beta-ketoacyl-[acyl-carrier-protein] synthase III (Enterococcus faecalis (strain ATCC 700802 / V583), UniProt Q820T1)", "T1 sequence (Q820T1 whole entry)": "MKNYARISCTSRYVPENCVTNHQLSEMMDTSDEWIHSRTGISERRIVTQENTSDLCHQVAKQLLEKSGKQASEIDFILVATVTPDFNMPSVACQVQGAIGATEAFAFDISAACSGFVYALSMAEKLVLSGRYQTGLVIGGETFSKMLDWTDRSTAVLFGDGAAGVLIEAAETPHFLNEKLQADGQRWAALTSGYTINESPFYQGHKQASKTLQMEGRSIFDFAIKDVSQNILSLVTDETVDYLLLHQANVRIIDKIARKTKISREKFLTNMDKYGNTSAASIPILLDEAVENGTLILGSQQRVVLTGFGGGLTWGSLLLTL", "experiment": "Inhibition of Enterococcus faecalis FabH by FabD/FabH coupled assay"}, "Staphylococcus aureus": {"system": "Staphylococcus aureus", "experiment": "Antibacterial activity against Staphylococcus aureus", "assay_type": "functional"}, "Streptococcus pneumoniae": {"system": "Streptococcus pneumoniae", "experiment": "Antibacterial activity against Streptococcus pneumoniae", "assay_type": "functional"}, "Neisseria meningitidis": {"system": "Neisseria meningitidis", "experiment": "Antibacterial activity against Neisseria meningitidis", "assay_type": "functional"}, "Escherichia coli": {"system": "Escherichia coli", "experiment": "Antibacterial activity against Escherichia coli", "assay_type": "functional"}}}
{"smiles": "O=C(NC1SC=CC1C(=O)O)c1cccc(Oc2ccccc2)c1", "note": "(stereo not given)", "values": [{"measurement": "IC50", "setting": "[1]", "value": 43000, "unit": "nM"}]}
{"smiles": "CS(=O)(=O)c1ccc(-c2ccc(C(=O)Nc3ccccc3C(=O)O)cc2Oc2ccccc2)cc1", "values": [{"measurement": "-logMIC", "setting": "Staphylococcus aureus", "value": 4.347}, {"measurement": "-logMIC", "setting": "Streptococcus pneumoniae", "value": 4.347}, {"measurement": "-logMIC", "setting": "Neisseria meningitidis", "value": 5.252}, {"measurement": "-logMIC", "setting": "Escherichia coli", "value": 5.252}]}
{"smiles": "CC1CC(C)CN(c2ccc(C(=O)Nc3ccccc3C(=O)O)cc2Oc2ccccc2)C1", "note": "(stereo not given)", "values": [{"measurement": "-logMIC", "setting": "Staphylococcus aureus", "value": 5.252}, {"measurement": "-logMIC", "setting": "Streptococcus pneumoniae", "value": 5.553}, {"measurement": "-logMIC", "setting": "Neisseria meningitidis", "value": 5.553}, {"measurement": "-logMIC", "setting": "Escherichia coli", "value": 5.252}]}
{"smiles": "O=C(Nc1ccccc1C(=O)O)c1cc(O)c(-c2ccccc2)c(Oc2ccccc2)c1", "values": [{"measurement": "IC50", "setting": "[1]", "value": 4, "unit": "nM"}, {"measurement": "-logMIC", "setting": "Staphylococcus aureus", "value": 4.658}, {"measurement": "-logMIC", "setting": "Streptococcus pneumoniae", "value": 4.658}, {"measurement": "-logMIC", "setting": "Neisseria meningitidis", "value": 5.854}, {"measurement": "-logMIC", "setting": "Escherichia coli", "value": 5.854}]}
{"smiles": "O=C(Nc1ccccc1C(=O)O)c1ccc(-c2ccccc2)c(Oc2ccccc2)c1", "values": [{"measurement": "-logMIC", "setting": "Staphylococcus aureus", "value": 4.947}, {"measurement": "-logMIC", "setting": "Streptococcus pneumoniae", "value": 5.854}, {"measurement": "-logMIC", "setting": "Neisseria meningitidis", "value": 5.854}, {"measurement": "-logMIC", "setting": "Escherichia coli", "value": 5.854}]}
{"smiles": "O=C(Nc1ccccc1C(=O)O)c1cc(O)cc(Oc2ccccc2)c1", "values": [{"measurement": "IC50", "setting": "[1]", "value": 410, "unit": "nM"}]}
{"smiles": "O=C(Nc1ccccc1C(=O)O)c1ccc(-c2ccc(C(F)(F)F)cc2)c(Oc2ccccc2)c1", "values": [{"measurement": "-logMIC", "setting": "Staphylococcus aureus", "value": 5.252}, {"measurement": "-logMIC", "setting": "Streptococcus pneumoniae", "value": 6.155}, {"measurement": "-logMIC", "setting": "Neisseria meningitidis", "value": 5.854}, {"measurement": "-logMIC", "setting": "Escherichia coli", "value": 6.155}]}
{"smiles": "O=C(Nc1ccccc1C(=O)O)c1cc(O)c(Br)c(Oc2ccccc2)c1", "values": [{"measurement": "IC50", "setting": "[1]", "value": 62.1, "unit": "nM"}, {"measurement": "-logMIC", "setting": "Staphylococcus aureus", "value": 4.347}, {"measurement": "-logMIC", "setting": "Streptococcus pneumoniae", "value": 4.347}, {"measurement": "-logMIC", "setting": "Neisseria meningitidis", "value": 5.553}, {"measurement": "-logMIC", "setting": "Escherichia coli", "value": 5.553}]}
{"smiles": "Cc1cc(-c2ccc(C(=O)Nc3ccccc3C(=O)O)cc2Oc2ccccc2)ccc1Cl", "values": [{"measurement": "-logMIC", "setting": "Staphylococcus aureus", "value": 5.252}, {"measurement": "-logMIC", "setting": "Streptococcus pneumoniae", "value": 5.553}, {"measurement": "-logMIC", "setting": "Neisseria meningitidis", "value": 6.155}, {"measurement": "-logMIC", "setting": "Escherichia coli", "value": 6.155}]}
{"smiles": "O=C(Nc1ccccc1C(=O)O)c1ccc(-c2ccc(F)cc2F)c(Oc2ccccc2)c1", "values": [{"measurement": "-logMIC", "setting": "Staphylococcus aureus", "value": 5.252}, {"measurement": "-logMIC", "setting": "Streptococcus pneumoniae", "value": 5.553}, {"measurement": "-logMIC", "setting": "Neisseria meningitidis", "value": 6.444}, {"measurement": "-logMIC", "setting": "Escherichia coli", "value": 6.155}]}
{"smiles": "Cc1cc(-c2ccc(C(=O)Nc3ccccc3C(=O)O)cc2Oc2ccccc2)ccc1F", "values": [{"measurement": "-logMIC", "setting": "Staphylococcus aureus", "value": 5.252}, {"measurement": "-logMIC", "setting": "Streptococcus pneumoniae", "value": 6.155}, {"measurement": "-logMIC", "setting": "Neisseria meningitidis", "value": 6.155}, {"measurement": "-logMIC", "setting": "Escherichia coli", "value": 6.155}]}
{"smiles": "O=C(NC1=CCSC1C(=O)O)c1cccc(Oc2ccccc2)c1", "note": "(stereo not given)", "values": [{"measurement": "IC50", "setting": "[1]", "value": 10100, "unit": "nM"}]}
{"smiles": "CC(C)c1cccc(-c2ccc(C(=O)Nc3ccccc3C(=O)O)cc2Oc2ccccc2)c1", "values": [{"measurement": "-logMIC", "setting": "Staphylococcus aureus", "value": 5.252}, {"measurement": "-logMIC", "setting": "Streptococcus pneumoniae", "value": 5.854}, {"measurement": "-logMIC", "setting": "Neisseria meningitidis", "value": 5.854}, {"measurement": "-logMIC", "setting": "Escherichia coli", "value": 5.553}]}
